Laboratory results taken from ChEMBL document CHEMBL1130375, “Pyridazinones with a pendant acylsulfonamide moiety as endothelin receptor antagonists” (Bioorg Med Chem Lett, 1997).

Key:
Endothelin-1 receptor [1] = biological target: T1, Endothelin-1 receptor (Rattus norvegicus, UniProt P26684); assay: Inhibition of specific binding of [125I]ET1 (endothelin 1) to the endothelin A receptor of rat aorta membranes; assay type: cell membranes, Membrane
T1 sequence (P26684 whole entry): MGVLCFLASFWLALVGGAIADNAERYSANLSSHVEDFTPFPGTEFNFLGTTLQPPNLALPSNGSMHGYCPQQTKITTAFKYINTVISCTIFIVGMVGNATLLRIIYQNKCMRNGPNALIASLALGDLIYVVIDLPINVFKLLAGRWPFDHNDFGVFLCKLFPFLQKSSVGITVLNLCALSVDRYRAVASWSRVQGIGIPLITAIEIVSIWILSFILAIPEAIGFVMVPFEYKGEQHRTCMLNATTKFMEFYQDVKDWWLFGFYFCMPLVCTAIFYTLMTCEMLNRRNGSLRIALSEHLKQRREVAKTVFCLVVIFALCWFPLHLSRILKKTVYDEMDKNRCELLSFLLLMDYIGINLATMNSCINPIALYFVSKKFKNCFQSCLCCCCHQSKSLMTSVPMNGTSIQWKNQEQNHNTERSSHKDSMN

[2] = biological target: T2, Endothelin receptor type B (Sus scrofa, UniProt P35463); assay: Inhibition of specific binding of [125I]ET1 (endothelin 1) to endothelin B receptor of porcine kidney membranes
T2 sequence (P35463 whole entry): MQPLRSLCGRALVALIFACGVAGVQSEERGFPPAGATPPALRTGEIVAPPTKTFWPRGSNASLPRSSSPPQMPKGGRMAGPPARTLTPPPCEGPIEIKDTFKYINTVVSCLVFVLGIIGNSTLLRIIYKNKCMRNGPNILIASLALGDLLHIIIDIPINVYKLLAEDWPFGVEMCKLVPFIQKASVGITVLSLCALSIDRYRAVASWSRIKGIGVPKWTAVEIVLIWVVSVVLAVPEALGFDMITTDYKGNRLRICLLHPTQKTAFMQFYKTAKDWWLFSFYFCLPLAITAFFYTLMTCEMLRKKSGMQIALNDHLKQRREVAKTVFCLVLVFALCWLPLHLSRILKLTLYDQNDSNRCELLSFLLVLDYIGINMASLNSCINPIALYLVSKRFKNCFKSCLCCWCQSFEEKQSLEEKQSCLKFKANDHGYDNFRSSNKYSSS

Endothelin-1 receptor [3] = biological target: T1, Endothelin-1 receptor; assay: Compound was evaluated for the antagonism at the Endothelin A receptor (G-protein coupled endothelin A); assay type: functional; details: read-out: pA2 (converted)
Endothelin-1 receptor [4] = biological target: T1, Endothelin-1 receptor; assay: Compound was evaluated for the antagonism at the Endothelin A receptor in isolated rat aortic rings; assay type: functional; details: read-out: pA2 (converted)
[5] = biological target: T3, Endothelin receptor type B (Homo sapiens, UniProt P24530); assay: Compound was evaluated for the antagonism at the Endothelin B receptor in isolated rabbit jugularis vein; assay type: functional, Oryctolagus cuniculus; details: target entry is the homologue from another species; read-out: pA2 (converted)
T3 sequence (P24530 whole entry): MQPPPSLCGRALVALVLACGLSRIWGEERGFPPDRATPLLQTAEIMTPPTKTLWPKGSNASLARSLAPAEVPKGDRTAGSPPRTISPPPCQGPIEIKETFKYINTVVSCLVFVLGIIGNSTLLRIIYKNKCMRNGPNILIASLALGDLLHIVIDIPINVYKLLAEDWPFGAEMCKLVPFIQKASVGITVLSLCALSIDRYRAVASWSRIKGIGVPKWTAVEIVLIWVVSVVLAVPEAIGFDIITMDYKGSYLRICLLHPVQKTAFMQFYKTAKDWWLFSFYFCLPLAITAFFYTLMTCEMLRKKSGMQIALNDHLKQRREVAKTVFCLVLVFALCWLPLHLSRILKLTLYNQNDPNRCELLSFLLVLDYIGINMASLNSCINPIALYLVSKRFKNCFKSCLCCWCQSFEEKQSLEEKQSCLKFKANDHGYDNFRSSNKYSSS

SMILES | IC50 (Endothelin-1 receptor [1]) [nM] | IC50 [2] [nM] | Kb (Endothelin-1 receptor [3]) [nM] | Kb (Endothelin-1 receptor [4]) [nM] | Kb [5] [nM]
CCCc1ccc(=O)n(C(C(=O)NS(=O)(=O)c2ccc(C(C)C)cc2)c2ccc3c(c2)OCO3)n1 (stereo not given) | 640 | 8400 | – | – | –
COc1ccc(-c2cc(C)c(=O)n(C(C(=O)NS(=O)(=O)c3ccc(C(C)C)cc3)c3ccc4c(c3)OCO4)n2)cc1 (stereo not given) | 4000 | 7700 | – | – | –
COc1ccc(OC)c(C2=NN(C(C(=O)NS(=O)(=O)c3ccc(C(C)C)cc3)c3ccc4c(c3)OCO4)C(=O)CC2)c1 (stereo not given) | > 100000 | > 100000 | – | – | –
COc1ccc(C2=NN(C(C(=O)NS(=O)(=O)c3ccc(C(C)C)cc3)c3ccc4c(c3)OCO4)C(=O)CC2)c(OC)c1 (stereo not given) | > 100000 | > 100000 | – | – | –
CC(C)c1ccc(S(=O)(=O)NC(=O)C(c2ccc3c(c2)OCO3)n2nc(C(C)(C)C)ccc2=O)cc1 (stereo not given) | 4000 | > 100000 | – | – | –
CC(C)c1ccc(S(=O)(=O)NC(=O)C(c2ccc3c(c2)OCO3)n2nc(C3CC3)ccc2=O)cc1 (stereo not given) | 260 | 2600 | – | – | –
Cc1cc(C)c(=O)n(C(C(=O)NS(=O)(=O)c2ccc(C(C)(C)C)cc2)c2ccc3c(c2)OCO3)n1 (stereo in doubt; 2q) | 20 | 1200 | – | – | –
CC(C)c1ccc(S(=O)(=O)NC(=O)C(c2ccc3c(c2)OCO3)n2nc3c(cc2=O)CCC3)cc1 (stereo not given) | 2500 | 1700 | – | – | –
Cc1ccc(=O)n(C(C(=O)NS(=O)(=O)c2ccc(-c3ccccc3)cc2)c2ccc3c(c2)OCO3)n1 (stereo not given) | 240 | 2400 | – | – | –
CCCc1cc(C)c(=O)n(C(C(=O)NS(=O)(=O)c2ccc(C(C)C)cc2)c2ccc3c(c2)OCO3)n1 (stereo not given) | 290 | 4500 | – | – | –
CCCc1cc(C(=O)O)ccc1OC(C(=O)NS(=O)(=O)c1ccc(C(C)C)cc1)c1ccc2c(c1)OCO2 (stereo not given) | 41 | 900 | 3.16 | – | –
Cc1cc(C)c(=O)n(C(C(=O)NS(=O)(=O)c2ccc(C(C)(C)C)cc2)c2ccc3c(c2)OCO3)n1 (single isomer, unassigned; form 1) | 2600 | > 100000 | – | – | –
Cc1cc(C)c(=O)n(C(C(=O)NS(=O)(=O)c2ccc(C(C)(C)C)cc2)c2ccc3c(c2)OCO3)n1 (single isomer, unassigned; form 2) | 18 | 550 | – | – | –
Cc1ccc(=O)n(C(C(=O)NS(=O)(=O)c2ccc(C(C)(C)C)cc2)c2ccc3c(c2)OCO3)n1 (stereo not given) | 32 | 2000 | – | – | –
Cc1ccc(=O)n(C(C(=O)NS(=O)(=O)c2ccc(C(C)C)cc2)c2ccc3c(c2)OCO3)n1 (stereo not given) | 34 | 2900 | 631 | – | –
CCc1cc(C)nn(C(C(=O)NS(=O)(=O)c2ccc(C(C)C)cc2)c2ccc3c(c2)OCO3)c1=O (stereo not given) | 32 | 2600 | – | – | –
Cc1ccc(=O)n(C(C(=O)NS(=O)(=O)c2ccccc2)c2ccc3c(c2)OCO3)n1 (stereo not given) | 230 | > 100000 | – | – | –
COc1ccc(C2=NN(C(C(=O)NS(=O)(=O)c3ccc(C(C)C)cc3)c3ccc4c(c3)OCO4)C(=O)CC2)cc1 (stereo not given) | 2900 | 4200 | – | – | –
Cc1ccc(=O)n(C(C(=O)NS(=O)(=O)c2ccc(Br)cc2)c2ccc3c(c2)OCO3)n1 (stereo not given) | 230 | > 100000 | – | – | –
COc1ccc(-c2ccc(=O)n(C(C(=O)NS(=O)(=O)c3ccc(C(C)C)cc3)c3ccc4c(c3)OCO4)n2)cc1 (stereo not given) | 3200 | 5700 | – | – | –
COc1ccc(C2=NN(C(C(=O)NS(=O)(=O)c3ccc(C(C)C)cc3)c3ccc4c(c3)OCO4)C(=O)CC2)cc1OC (stereo not given) | 4100 | > 100000 | – | – | –
CC(C)c1ccc(S(=O)(=O)NC(=O)C(c2ccc3c(c2)OCO3)N2N=C(c3cccs3)CCC2=O)cc1 (stereo not given) | 3200 | > 100000 | – | – | –
CC(C)c1ccc(S(=O)(=O)NC(=O)C(c2ccc3c(c2)OCO3)N2N=C(c3ccccc3)CCC2=O)cc1 (stereo not given) | 2600 | > 100000 | – | – | –
Cc1cc(C)c(=O)n(C(C(=O)NS(=O)(=O)c2ccc(C(C)C)cc2)c2ccc3c(c2)OCO3)n1 (stereo not given) | 29 | 3500 | – | 1260 | 1580
Cc1cc(=O)n(C(C(=O)NS(=O)(=O)c2ccc(C(C)C)cc2)c2ccc3c(c2)OCO3)nc1C (stereo not given) | 340 | 5200 | – | – | –
COc1ccc(S(=O)(=O)NC(=O)C(c2ccc3c(c2)OCO3)n2nc(C)ccc2=O)cc1 (stereo not given) | 160 | > 100000 | – | – | –
O=C(O)C(c1ccc2c(c1)OCO2)N1N=C(c2ccccc2)CCC1=O (stereo not given) | > 100000 | > 100000 | – | – | –
CC(C)c1ccc(S(=O)(=O)NC(=O)C(c2ccc3c(c2)OCO3)N2N=C(c3ccc(Cl)cc3)CCC2=O)cc1 (stereo not given) | 2700 | 6400 | – | – | –
